Results as given in US20140219995A1, “INHIBITORS OF BACTERIAL TYPE III SECRETION SYSTEM” (priority 2011, published 2014).
Like-named read-outs stand apart in the source and are kept apart here.

Key:
[1] = system: T3SS-mediated secretion of ExoS′-βLA fusion protein, P. aeruginosa strain MDM973; assay: Effector-β-lactamase (ExoS′-βLA) secretion assay; format: cell-based, Pseudomonas aeruginosa; conditions: for IC50: Pseudomonas aeruginosa, read-out: Avg. Secretion IC50
Text: Effector-β-Lactamase (βLA) Secretion Assays.
P. aeruginosa. A gene encoding an ExoS'-β-lactamase (βLA) fusion protein (comprised of 234 codons of P. aeruginosa effector ExoS fused to the TEM-1 β-lactamase gene lacking secretion signal codons) was constructed by splicing by overlap extension PCR (SOE-PCR) (Choi and Schweizer, 2005, BMC Microbiol., 5:30) using primers 5-10 (Table 3, above), sequence confirmed, cloned into lacI^Q-containing GATEWAY® vector pUCP24GW (see Moir, et al., 2007, J Biomol. Screen., 12:855-64) behind the lac promoter, and introduced into P. aeruginosa by electroporation (see Choi, et al., 2006, J. Microbiol. Methods, 64:391-7). Secretion of fusion proteins was detected by measuring the hydrolysis of the chromogenic β-lactamase substrate nitrocefin in clear 96-well microplates in a modification of a previously described assay (Lee, et al., 2007, Infect. Immun., 75:1089-98). Cells of strain MDM973 (PAK/pUCP24GW-exoS:blaM) were sub-cultured in the morning from overnight growths in LBG into 0.1 ml of LBGIE with or without test compounds and grown for 150 min. Nitrocefin (100 μg/ml final) was added, and A490 measurements taken every minute for 15 min in a Victor^3V 1420 Multilabel HTS Counter (PerkinElmer). Slopes were calculated as a relative measure of the quantity of the effector-βLA fusion protein secreted and were absolutely dependent on induction with IPTG, EGTA, and the presence of a functional pscC gene in the P. aeruginosa cells. Typical signal:background ratios were 6-10.

[2] = system: T3SS-mediated cytotoxicity of translocated effector protein ExoU in CHO cells; assay: Inhibition of P. aeruginosa ExoU-dependent CHO cell killing (translocation, LDH release); format: cell-based; conditions: Pseudomonas aeruginosa, read-out: Avg. Translocation IC50
Text: Inhibition of P. aeruginosa ExoU-Dependent CHO Cell Killing.
Pseudolipasin, which acts by direct inhibition of the ExoU phospholipase, was used as control inhibitor (Lee, et al, 2007, Infect. Immun., 75:1089-98).

[3] = Determination of mammalian cytotoxicity (MTS); format: cell-based; conditions: human
Method: Determination of Mammalian Cytotoxicity.
See, Marshall, et al., 1995, A critical assessment of the use of microculture tetrazolium assays to measure cell growth and function, Growth Regul., 5:69-84. Briefly, 96-well plates were seeded with HeLa cells at a density of 4×10^3 per well in VP-SFM medium without serum (Frazzati-Gallina, et al., 2001, J. Biotechnol., 92:67-72), in the presence or absence of serial dilutions of a compound dissolved in DMSO. Following incubation for 3 days at 37° C. in VP-SFM, cell viability was measured with the vital tetrazolium salt stain 3-(4,5-dimethylthiazol-2-yl)-2,5 diphenyltetrazolium bromide according to the manufacturer's instructions (Promega, Madison, Wis.). Values were determined in duplicate using dilutions of inhibitory compound from 100 μM to 0.2 μM.

[4] = Table 4, HeLa cells, 3 days, dilutions from 100 μM to 0.2 μM, read-out: Avg. CC50

| SMILES | IC50 [1] [µM] | IC50 [2] [µM] | CC50 at 3 days [3, 4] [µM] | melting point [°C] | effect of structural alteration on T3SS-mediated secretion inhibition ([1]; vs. MBX-1641) | CC50 at 3 days [3] [µM] | IC50 values lower (T3SS secretion inhibition) ([1]; vs. MBX-1641) [%] |
| --- | --- | --- | --- | --- | --- | --- | --- |
| CC(Oc1ccc(Cl)cc1Cl)C(=O)NCc1ccc(F)cc1 (stereo not shown) [MBX-1642] | 8 | 15 | 41 |  |  |  |  |
| CC(Oc1ccc(Cl)cc1Cl)C(=O)NCc1ccccc1 (stereo not shown) [MBX-1939] |  | 7.5 | 54 | 121 |  |  |  |
| COc1cccc(OC)c1CNC(=O)C(C)Oc1ccc(Cl)cc1Cl (stereo not shown) [MBX-1950] | 53.3 | 5 | 22 | 122 |  |  |  |
| Cc1cccc(CNC(=O)C(C)Oc2ccc(Cl)cc2Cl)c1 (stereo not shown) [MBX-1952] |  | 8 | 32 | 113 |  |  |  |
| CC(Oc1ccc(Cl)cc1Cl)C(=O)NCc1cccc(Cl)c1 (stereo not shown) [MBX-1957] |  | 5.4 | 72 | 140 |  |  |  |
| CC(Oc1ccc(Cl)cc1Cl)C(=O)NCc1ccc(Cl)cc1 (stereo not shown) [MBX-1958] |  | 9.6 | 42 | 115 |  |  |  |
| CC(Oc1ccc(Cl)cc1Cl)C(=O)NCc1ccc(N(C)C)cc1 (stereo not shown) [MBX-1961] | 33 | 3.4 | 86 | 127 |  |  |  |
| CC(Oc1ccc(Cl)cc1Cl)C(=O)NCc1ccccc1F (stereo not shown) [MBX-1962] |  | 8.2 | 32 | 121 |  |  |  |
| CC(Oc1ccc(Cl)cc1Cl)C(=O)NCc1cccc(F)c1 (stereo not shown) [MBX-1963] |  | 4.9 | 59 | 106 |  |  |  |
| CC(Oc1ncc(Cl)cc1Cl)C(=O)NCc1ccc2c(c1)OCO2 (stereo not shown) [MBX-2155] |  |  | > 100 | 180 |  |  |  |
| CC(Nc1ccc(Cl)cc1Cl)C(=O)NCc1ccc2c(c1)OCO2 (stereo not shown) [MBX-2212] | 9.6 | 35.3 |  |  | adverse effect | 80 |  |
| CC(Oc1ccc(Cl)cc1Cl)C(=O)NC(C)c1ccc(F)cc1 (stereo not shown) [MBX-2221] | 4.6 |  | 32 |  |  |  | 34 |
| C[C@@H](Oc1ccc(Cl)cc1Cl)C(=O)N[C@H](C)c1ccc(F)cc1 [MBX-2572] |  | > 100 | > 100 |  |  |  |  |
| C[C@H](NC(=O)[C@@H](C)Oc1ccc(Cl)cc1Cl)c1ccc(F)cc1 [MBX-2573] |  | > 100 | > 100 |  |  |  |  |
| CC(Oc1ccc(Cl)cc1Cl)C(=O)NCc1ccc2[nH]ccc2c1 (stereo not shown) [MBX-2590] | 1.7 |  |  | 91 |  | 25 |  |
| CC(Oc1ccc(Cl)cc1Cl)C(=O)NC1CCCc2cc(F)ccc21 (stereo not shown) [MBX-2601] | 35 |  |  | 82 |  | 40 |  |
| CCC(NC(=O)C(C)Oc1ccc(Cl)cc1Cl)c1ccc(F)cc1 (stereo not shown) [MBX-2608] |  |  | 11 | 95 |  |  |  |
| CC(Oc1ccc(Cl)cc1Cl)C(=O)NC(c1ccc(F)cc1)C1CCC1 (stereo not shown) [MBX-2615] | 2.2 |  | 26 | 103 |  |  |  |
| CC(Oc1ccc(Cl)cc1Cl)C(=O)NC(C)(C)c1ccc(F)cc1 (stereo not shown) [MBX-2616] | 8 |  | 16 | 105 |  |  |  |
| CC(Oc1ccc(Cl)cc1Cl)C(=O)NC(c1ccc(F)cc1)C(C)C (stereo not shown) [MBX-2617] | 2.1 |  | 9 | 107 |  |  |  |
| CC(Oc1ccc(Cl)cc1Cl)C(=O)NCc1ccc(F)cn1 (stereo not shown) [MBX-2623] | 21 |  | 70 | 78 |  |  |  |
| CC(Oc1ccc(Cl)cc1Cl)C(=O)NCc1cc2ccccc2[nH]1 (stereo not shown) [MBX-2624] |  | 16 | 9 |  |  |  |  |
| CCCC(NC(=O)C(C)Oc1ccc(Cl)cc1Cl)c1ccc(F)cc1 (stereo not shown) [MBX-2628] | 4.3 |  | 14 | 79 |  |  |  |
| CCCCC(NC(=O)C(C)Oc1ccc(Cl)cc1Cl)c1ccc(F)cc1 (stereo not shown) [MBX-2629] | 4.7 |  | 19 | 100 |  |  |  |
| CC(Oc1ccc(Cl)cc1Cl)C(=O)NC1(c2ccc(F)cc2)CC1 (stereo not shown) [MBX-2666] | 5.3 |  | 100 | 134 |  |  |  |
